We go through four molecules from patent US9809750B2, “Liquid crystal composition” (Nanoegg Research Laboratories, Inc., priority 2009, dated 2017).

How the values of this data set were obtained: Then, SH556 (phenyl-modified silicone oil) was added to this liquid crystal composition to prepare the liquid crystal composition of the present invention.
(§1) The solubilized concentration (saturated concentration of solubilization) of oil was measured by sample appearance, for example, cloudiness or phase separation.
Then, a mixed oil of SH556 and squalane or a mixed oil of KF50-100CS and squalane was added to the mixed surfactant aqueous solution, thereby preparing the liquid crystal compositions of the present invention. The weight ratio of a phenyl-modified silicone oil (SH556 or KF50-100CS) and squalane is 1:1 in each mixed oil. Moreover, as a comparative example, squalane alone was added to the mixed surfactant aqueous solution to prepare a liquid crystal composition for the comparative example.
The solubilized concentration of oil (mixed oil or squalane) in each liquid crystal composition was evaluated. The solubilized concentration (saturated concentration of solubilization) of oil was measured by sample appearance, for example, cloudiness or phase separation.
Then, a mixed oil of SH556 and squalane was added to each mixed surfactant aqueous solution, thereby preparing the liquid crystal compositions of the present invention. The weight ratio of SH556 and squalane is 1:1 in the mixed oil. Moreover, as comparative examples, squalane alone was added to the mixed surfactant aqueous solutions to prepare liquid crystal compositions for the comparative examples.
The solubilized concentration of oil (a mixed oil of SH556 and squalane or squalane) in each liquid crystal composition was evaluated. The solubilized concentration (saturated concentration of solubilization) of oil was measured by sample appearance, for example, cloudiness or phase separation.
Then, a mixed oil of SH556 and α-lipoic acid or a mixed oil of SH556 and oleic acid was added to the mixed surfactant aqueous solution, thereby preparing the liquid crystal compositions of the present invention. The weight ratio of SH556 and a fatty acid (α-lipoic acid or oleic acid) is 1:1 in each mixed oil.
The solubilized concentration of oil (a mixed oil of SH556 and α-lipoic acid, a mixed oil of SH556 and oleic acid, α-lipoic acid or oleic acid) in each liquid crystal composition was evaluated. The solubilized concentration (saturated concentration of solubilization) of oil was measured by sample appearance, for example, cloudiness or phase separation.
as §1

Turning to `CCCCCCCCCCCCCCCCOC(=O)CCCCC(C)C` [cetyl isooctanoate], the “solubilized concentration of cetyl isooctanoate” value is given as “up to 12.96 % by weight”.

As to `CCCCCCCC/C=C\CCCCCCCC(=O)O` [oleic acid], the “solubilized concentration of oleic acid” value is recorded as “up to 11.7 % by weight”.

For `CC(C)CCCC(C)CCCC(C)CCCCC(C)CCCC(C)CCCC(C)C` (stereo not drawn) [squalane], the “solubilized concentration of oil” value was “could not be dissolved” and the “solubilized concentration of squalane” value is “up to 3.125 % by weight”.

Consider phenyl trimethicone [SH556], for which the “effect of enhancing solubility of squalane” value is listed as “showed the effect of enhancing solubility of squalane” and the “solubilized concentration of oil” value was “at least 25 % by weight”.
